For one cell line, relative viability results are on record in the supplement of paper PMC10307832.

What all share (experiment): relative viability (nuclei count vs DMSO), 5 days (fraction); higher = more cells survive
Compound in assay [1]: CCn1c(-c2nonc2N)nc2cnc(Oc3cccc(NC(=O)c4ccc(OCCN5CCOCC5)cc4)c3)cc21 + Cc1nc(Nc2ncc(C(=O)Nc3c(C)cccc3Cl)s2)cc(N2CCN(CCO)CC2)n1 [Dasatinib] (partner 0.075 µM)
The gist of the method: (§1)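 A single step with final 0.05% Triton X-100, 1% formaldehyde and 1 ug/ml Hoechst fixed the cells and stained nuclei 5 days after treatment. Lung cancer cell lines in 1536-well plates had been treated by pin tool the day after seeding with one drug alone or a fixed anchor-drug dose plus five library-drug doses (not always all listed) in √10 steps, and nuclei were counted on 4× images. Relative viability is the ratio of nuclei in treated wells to nuclei in vehicle wells, taken as the median of duplicate plates.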

Compound in assay [2]: CCC1=CN=CN=C1N2CCN(CC2)CC3=NC4=C(N3)C=C(C=C4)C(F)(F)F + Nc1ncn([C@H]2C[C@H](O)[C@@H](CO)O2)c(=O)n1 [Decitabine] (partner 2 µM)
In a few lines: as §1

Compound in assay [3]: CCn1c(-c2nonc2N)nc2cnc(Oc3cccc(NC(=O)c4ccc(OCCN5CCOCC5)cc4)c3)cc21 + O=C(c1cc(Cc2n[nH]c(=O)c3ccccc23)ccc1F)N1CCN(C(=O)C2CC2)CC1 [Olaparib] (partner 8 µM)
In a few lines: as §1

Compound in assay [4]: CCn1c(-c2nonc2N)nc2cnc(Oc3cccc(NC(=O)c4ccc(OCCN5CCOCC5)cc4)c3)cc21 + CC(C)C[C@H](NC(=O)[C@H](Cc1ccccc1)NC(=O)c1cnccn1)B(O)O [Bortezomib] (partner 0.002 µM)
The gist of the method:
as §1

Consider UMC-11, for which the relative viability in assay [1] (first compound 0.04 µM) is 0.37; in assay [1] (first compound 0.1265 µM) it was 0.415; in assay [1] (first compound 0.4 µM), 0.337; in assay [1] (first compound 1.265 µM), 0.214; in assay [1] (first compound 4 µM), 0.182; in assay [2] (first compound 0.04 µM) it was 0.622. Besides, the relative viability in assay [2] (first compound 0.1265 µM) amounted to 0.562; in assay [2] (first compound 0.4 µM), 0.602; in assay [2] (first compound 1.265 µM) it was 0.379; in assay [2] (first compound 4 µM), 0.351; in assay [3] (first compound 0.04 µM), 0.38; in assay [3] (first compound 0.1265 µM) it was 0.303. Also, the relative viability in assay [3] (first compound 0.4 µM) was 0.32; in assay [3] (first compound 1.265 µM), 0.088; in assay [3] (first compound 4 µM), 0.185; in assay [4] (first compound 0.04 µM) it was 0.999; in assay [4] (first compound 0.1265 µM) it was 0.439; in assay [4] (first compound 0.4 µM), 0.312. In addition, the relative viability in assay [4] (first compound 1.265 µM) was 0.161; in assay [4] (first compound 4 µM), 0.135.
